Reference: ChEMBL document CHEMBL1201862, “PubChem BioAssay data set” (2004)
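Five concentrations, 48 hours, 96-well plates. GI50 marks 50% less growth.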 Active and inactive are the calls of the source. Rule as the data show it: active = GI50 up to about 1.1 µM and inactive = higher.

How the values were obtained:
Assay in all cases: NCI tumour cell line growth inhibition, 48 h
[1] = system: A549
[2] = system: ACHN
[3] = system: HCT-116
[4] = system: IGROV-1
[5] = system: MDA-MB-231
[6] = system: MDA-N
[7] = system: MOLT-4
[8] = system: Malme-3M
[9] = system: NCI-H460
[10] = system: NCI/ADR-RES
[11] = system: OVCAR-4
[12] = system: OVCAR-5
[13] = system: RXF 393
[14] = system: SK-OV-3
[15] = system: SNB-19
[16] = system: SR
[17] = system: T47D
[18] = system: TK-10
[19] = system: U-251
[20] = system: LOX IMVI

| SMILES | GI50 [1] | GI50 [2] | GI50 [3] | GI50 [4] | GI50 [5] | GI50 [6] | GI50 [7] | GI50 [8] | GI50 [9] | GI50 [10] | GI50 [11] | GI50 [12] | GI50 [13] | GI50 [14] | GI50 [15] | GI50 [16] | GI50 [17] | GI50 [18] | GI50 [19] | GI50 [20] |
| --- | --- | --- | --- | --- | --- | --- | --- | --- | --- | --- | --- | --- | --- | --- | --- | --- | --- | --- | --- | --- |
| CC1C(OS(=O)(=O)c2ccc3nc(S)sc3c2)CC2C3(C)CCC2(C(C)C(=O)O)C(O)C13 (stereo not drawn) | 21.7 µM (inactive) | 15.9 µM (inactive) | 13.6 µM (inactive) | 11.4 µM (inactive) | 21.2 µM (inactive) | 22.4 µM (inactive) | 16.9 µM (inactive) | 27.2 µM (inactive) | 46.9 µM (inactive) | 33 µM (inactive) | 18.6 µM (inactive) | 25.5 µM (inactive) | 21.7 µM (inactive) | 40.7 µM (inactive) | 54.1 µM (inactive) | 11.9 µM (inactive) | 21.2 µM (inactive) | 44.5 µM (inactive) | 16.2 µM (inactive) |  |
| COC(=O)CNC(=O)c1cc(C)cc2c1Oc1c(cc(C)cc1C(=O)NCC(=O)OC)S2 | 37.6 µM (inactive) | 25.6 µM (inactive) | > 100 µM (inactive) | > 100 µM (inactive) | > 100 µM (inactive) | > 100 µM (inactive) | 62.2 µM (inactive) | 17.9 µM (inactive) |  | > 100 µM (inactive) | > 100 µM (inactive) | > 100 µM (inactive) | 29.6 µM (inactive) | 56 µM (inactive) | > 100 µM (inactive) | 31 µM (inactive) | > 100 µM (inactive) | > 100 µM (inactive) | > 100 µM (inactive) | 96.4 µM (inactive) |
| CCOC(=O)C(=O)C(CCC(=O)c1ccc2ccccc2c1O)C(=O)OCC (stereo not drawn) | > 100 µM (inactive) | > 100 µM (inactive) | > 100 µM (inactive) | > 100 µM (inactive) | > 100 µM (inactive) | > 100 µM (inactive) | > 100 µM (inactive) | > 100 µM (inactive) | > 100 µM (inactive) | > 100 µM (inactive) | > 100 µM (inactive) | > 100 µM (inactive) | > 100 µM (inactive) | > 100 µM (inactive) | > 100 µM (inactive) | > 100 µM (inactive) | > 100 µM (inactive) |  | > 100 µM (inactive) | > 100 µM (inactive) |
| CCCCCCc1cc2cc(C(=O)NCc3ccccc3)c(=N)oc2cc1O | > 100 µM (inactive) | > 100 µM (inactive) | > 100 µM (inactive) | > 100 µM (inactive) | > 100 µM (inactive) | > 100 µM (inactive) | > 100 µM (inactive) | > 100 µM (inactive) | > 100 µM (inactive) | > 100 µM (inactive) | > 100 µM (inactive) | > 100 µM (inactive) | > 100 µM (inactive) | > 100 µM (inactive) | > 100 µM (inactive) | > 100 µM (inactive) | > 100 µM (inactive) |  | > 100 µM (inactive) | > 100 µM (inactive) |
| COCCOC(=O)c1c(C)[n+]([O-])c2cc(Cl)c(Cl)cc2[n+]1[O-] | 12.7 µM (inactive) | 12.7 µM (inactive) |  | 3.85 µM (inactive) | 24.1 µM (inactive) | 23.2 µM (inactive) | 13.1 µM (inactive) | 18.5 µM (inactive) | 7.85 µM (inactive) | 11 µM (inactive) | 14.4 µM (inactive) | 16.7 µM (inactive) | 30.4 µM (inactive) | 17.9 µM (inactive) | 40.8 µM (inactive) | 4.76 µM (inactive) | 4.68 µM (inactive) | 23.2 µM (inactive) | 9.82 µM (inactive) | 13.5 µM (inactive) |
| CCOC(=O)c1sc(=S)n(-c2ccc(Cl)cc2)c1-n1cc(-c2ccccc2)c(C#N)c1N | 18.8 µM (inactive) | 16.7 µM (inactive) | 26.1 µM (inactive) | 15.3 µM (inactive) | 17.6 µM (inactive) | 50.8 µM (inactive) | > 100 µM (inactive) |  | 22.3 µM (inactive) | 16.9 µM (inactive) | 8.85 µM (inactive) | > 100 µM (inactive) | 15.4 µM (inactive) | 16.9 µM (inactive) | 19 µM (inactive) | 17.4 µM (inactive) | 13.1 µM (inactive) | 11.3 µM (inactive) | 15.2 µM (inactive) | 43.5 µM (inactive) |
| O=c1oc2c(ccc3ccccc32)cc1C1=CSC2=NCCN12 | 27.1 µM (inactive) | 35.2 µM (inactive) | 32.4 µM (inactive) | 32.7 µM (inactive) | 38.3 µM (inactive) | 51.6 µM (inactive) | 34.2 µM (inactive) | 58.6 µM (inactive) | 36.7 µM (inactive) | 75.2 µM (inactive) | 44.5 µM (inactive) |  | 33.5 µM (inactive) | 67.3 µM (inactive) | 38.6 µM (inactive) | 34.4 µM (inactive) | 30.5 µM (inactive) | 49.3 µM (inactive) | 59.8 µM (inactive) | 49.7 µM (inactive) |
| O=[N+]([O-])c1cccc(-c2ncc3c(n2)-c2ccccc2C3)c1 | > 100 µM (inactive) | > 100 µM (inactive) | > 100 µM (inactive) | 53.2 µM (inactive) | 20.5 µM (inactive) | > 100 µM (inactive) | > 100 µM (inactive) | > 100 µM (inactive) | > 100 µM (inactive) | > 100 µM (inactive) | > 100 µM (inactive) | > 100 µM (inactive) | 95.1 µM (inactive) | > 100 µM (inactive) | 30.3 µM (inactive) | > 100 µM (inactive) | > 100 µM (inactive) | 47.1 µM (inactive) | 93.8 µM (inactive) |  |
| CC(=O)O[C@H]1C(=O)[C@@]2(C)[C@H]([C@H](OC(=O)c3cccc(C(F)(F)F)c3)[C@]3(O)C[C@H](OC(=O)[C@H](O)[C@@H](NC(=O)c4ccccc4)c4ccccc4)C(C)=C1C3(C)C)[C@]1(OC(C)=O)CO[C@@H]1C[C@@H]2O | 0.00261 µM (active) | 0.377 µM (active) | < 0.0025 µM (active) | 0.00703 µM (active) | 0.0361 µM (active) | < 0.0025 µM (active) | 0.00427 µM (active) | 0.00318 µM (active) | 0.00469 µM (active) | 1.4 µM (inactive) | 0.336 µM (active) | 0.00475 µM (active) | 0.0222 µM (active) | 0.0288 µM (active) | 0.0889 µM (active) | < 0.0025 µM (active) | 0.00455 µM (active) | 0.175 µM (active) | < 0.0025 µM (active) |  |
| CCOC(=O)c1cn(CC)c(=O)n2c1nc1ccccc12 | 58.7 µM (inactive) | 55 µM (inactive) | 50.6 µM (inactive) | 33.3 µM (inactive) | > 100 µM (inactive) | > 100 µM (inactive) | 14.1 µM (inactive) |  | 35.4 µM (inactive) | 62.5 µM (inactive) | 35.3 µM (inactive) | > 100 µM (inactive) | 61.9 µM (inactive) |  | > 100 µM (inactive) | 28.4 µM (inactive) | 63.5 µM (inactive) |  | > 100 µM (inactive) | 31.9 µM (inactive) |
| C/C(=N\Nc1ccc([N+](=O)[O-])cc1[N+](=O)[O-])c1ccc2ccccc2n1 | 57.5 µM (inactive) | 42.8 µM (inactive) | 57.4 µM (inactive) | 28.1 µM (inactive) | 49.3 µM (inactive) | > 100 µM (inactive) | > 100 µM (inactive) | > 100 µM (inactive) | 33 µM (inactive) | 46 µM (inactive) |  | > 100 µM (inactive) | > 100 µM (inactive) | > 100 µM (inactive) | 20 µM (inactive) | 97.9 µM (inactive) | > 100 µM (inactive) | 39.6 µM (inactive) | 33.1 µM (inactive) |  |
| O=C1c2cc3ccccc3cc2C2(c3ccc(Cl)cc3)NCCN12 (stereo not drawn) | 28.4 µM (inactive) | 33 µM (inactive) | 18 µM (inactive) | 27.4 µM (inactive) | 87.7 µM (inactive) | 28.2 µM (inactive) | 33.2 µM (inactive) |  | 29.6 µM (inactive) | 32.8 µM (inactive) | 52.5 µM (inactive) | 21.5 µM (inactive) | 21.8 µM (inactive) | 29.3 µM (inactive) | 24.5 µM (inactive) | 29 µM (inactive) | 39.7 µM (inactive) | 34.8 µM (inactive) | 34.9 µM (inactive) | 21.9 µM (inactive) |
| Cn1c(-c2cccs2)cc(-c2cccs2)c1-c1ccco1 | 50.8 µM (inactive) | > 93.3 µM (inactive) | 27.7 µM (inactive) | > 48.9 µM (inactive) | 51.4 µM (inactive) | 39.5 µM (inactive) | 1.8 µM (inactive) |  | 38.7 µM (inactive) | 40.7 µM (inactive) | 1.7 µM (inactive) | > 100 µM (inactive) | 27.9 µM (inactive) | > 100 µM (inactive) | > 100 µM (inactive) | 14.8 µM (inactive) | 1.06 µM (active) | 41.7 µM (inactive) | 56.1 µM (inactive) | 22.7 µM (inactive) |
| O=C(NC12CC3CC(CC(C3)C1)C2)n1cnc2cncnc21 | 47.5 µM (inactive) | 34.8 µM (inactive) | 32.7 µM (inactive) | 26.6 µM (inactive) | 70 µM (inactive) | 33.5 µM (inactive) | 33.3 µM (inactive) | 26 µM (inactive) | 32.3 µM (inactive) | 28.6 µM (inactive) |  | 34.3 µM (inactive) | 26.5 µM (inactive) | 17.8 µM (inactive) | 93.3 µM (inactive) | 24.4 µM (inactive) | 20.6 µM (inactive) | 30.2 µM (inactive) | 35.3 µM (inactive) | 25.8 µM (inactive) |
